Like-named read-outs stand apart in the source and are kept apart here.
Key:
[1] = biological target: T1, human ACC1 (acetyl-coenzyme A carboxylase alpha transcript variant 1) (Homo sapiens, UniProt Q13085); assay: Human ACC1 enzyme assay, Assay B1 (ADP-Glo); assay type: biochemical
T1 construct: FLAG (C); made in house; host or cells: baculovirus-infected insect cells (Hi5)
Method: Essentially, the enzyme activity is measured by quantifying the adenosine diphosphate (ADP) formed as a byproduct of the enzyme reactions using the ADP-Glo™ detection system from Promega. In this test, initially the adenosine triphosphate (ATP) not consumed in the enzyme reaction is converted quantitatively with an adenylate cyclase (“ADP-GLO reagent”) into cAMP, the adenylate cyclase is then stopped and (“kinase detection reagent”) the ADP formed is subsequently converted into ATP, which is converted in a luciferase-based reaction into a glow luminescence signal.
The concentration of the hACC1 was adapted to the respective activity of the enzyme and adjusted such that the assay operated in the linear range. […] The amount of light emitted was taken as a measure for the amount of ADP formed and thus for the enzyme activity of the hACC1.

MCF7 = assay: Cell proliferation assay (CellTiter-Glo, 96 h), MCF7; assay type: cell-based; conditions: Homo sapiens, MCF7; Table 7; 96-hour incubation
Method in brief: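 Growth inhibition in percent was based on luminescence differences between treated and control samples after subtracting baseline readings taken at t=0. Cells had been incubated with compound for 96 hours at 37° C. following overnight plating.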

[2] = biological target: human ACC2 (acetyl-coenzyme A carboxylase 2) (Homo sapiens, UniProt O00763); assay: Human ACC2 enzyme assay, Assay B2 (ADP-Glo);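 also: human ACC2 activity read as ADP product, detected by luciferase glow luminescence after residual ATP removal, enzyme near 2 ng/µl in linear range, detection steps at 22 °C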
recombinant human ACC1 = recombinant human ACC1 (Homo sapiens, UniProt Q13085); assay: Human ACC1 enzyme assay, Assay A1 (HTRF ADP immunoassay);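 also: ADP generated by the enzyme quantified via competitive time-resolved FRET, read as europium cryptate to d2 energy transfer after 1 h at 22 °C with labelled ADP tracer and anti-ADP antibody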
[3] = biological target: acetyl-CoA carboxylase 2 (ACC2) (Homo sapiens, UniProt O00763); assay: Human ACC2 enzyme assay, Assay A2 (HTRF ADP immunoassay);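 also: ADP generated by ACC2 quantified via competitive time-resolved FRET between europium cryptate anti-ADP antibody and d2-tagged ADP, enzyme kept in linear range near 0.6 ng/µl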
Method: The inhibitory activity of the substances of this invention with regard to acetyl-CoA carboxylase 2 (ACC2) was measured using the ACC2 assay described in the paragraphs below. The basic principle of the assay is the measurement of adenosine diphosphate (ADP), which is formed as a by-product, by means of an HTRF®-based competitive immunoassay (HTRF=Homogeneous Time Resolved Fluorescence).
The amount of complex of d2-labelled ADP and europium cryptate-labelled anti-ADP antibody was then determined by measuring the resonance energy transfer of europium cryptate to d2.

[4] = Assay B1, read-out: ACC 1 (=B1) IC50

Sequence of human ACC2 (acetyl-coenzyme A carboxylase 2) (O00763 27-2458 limits assumed): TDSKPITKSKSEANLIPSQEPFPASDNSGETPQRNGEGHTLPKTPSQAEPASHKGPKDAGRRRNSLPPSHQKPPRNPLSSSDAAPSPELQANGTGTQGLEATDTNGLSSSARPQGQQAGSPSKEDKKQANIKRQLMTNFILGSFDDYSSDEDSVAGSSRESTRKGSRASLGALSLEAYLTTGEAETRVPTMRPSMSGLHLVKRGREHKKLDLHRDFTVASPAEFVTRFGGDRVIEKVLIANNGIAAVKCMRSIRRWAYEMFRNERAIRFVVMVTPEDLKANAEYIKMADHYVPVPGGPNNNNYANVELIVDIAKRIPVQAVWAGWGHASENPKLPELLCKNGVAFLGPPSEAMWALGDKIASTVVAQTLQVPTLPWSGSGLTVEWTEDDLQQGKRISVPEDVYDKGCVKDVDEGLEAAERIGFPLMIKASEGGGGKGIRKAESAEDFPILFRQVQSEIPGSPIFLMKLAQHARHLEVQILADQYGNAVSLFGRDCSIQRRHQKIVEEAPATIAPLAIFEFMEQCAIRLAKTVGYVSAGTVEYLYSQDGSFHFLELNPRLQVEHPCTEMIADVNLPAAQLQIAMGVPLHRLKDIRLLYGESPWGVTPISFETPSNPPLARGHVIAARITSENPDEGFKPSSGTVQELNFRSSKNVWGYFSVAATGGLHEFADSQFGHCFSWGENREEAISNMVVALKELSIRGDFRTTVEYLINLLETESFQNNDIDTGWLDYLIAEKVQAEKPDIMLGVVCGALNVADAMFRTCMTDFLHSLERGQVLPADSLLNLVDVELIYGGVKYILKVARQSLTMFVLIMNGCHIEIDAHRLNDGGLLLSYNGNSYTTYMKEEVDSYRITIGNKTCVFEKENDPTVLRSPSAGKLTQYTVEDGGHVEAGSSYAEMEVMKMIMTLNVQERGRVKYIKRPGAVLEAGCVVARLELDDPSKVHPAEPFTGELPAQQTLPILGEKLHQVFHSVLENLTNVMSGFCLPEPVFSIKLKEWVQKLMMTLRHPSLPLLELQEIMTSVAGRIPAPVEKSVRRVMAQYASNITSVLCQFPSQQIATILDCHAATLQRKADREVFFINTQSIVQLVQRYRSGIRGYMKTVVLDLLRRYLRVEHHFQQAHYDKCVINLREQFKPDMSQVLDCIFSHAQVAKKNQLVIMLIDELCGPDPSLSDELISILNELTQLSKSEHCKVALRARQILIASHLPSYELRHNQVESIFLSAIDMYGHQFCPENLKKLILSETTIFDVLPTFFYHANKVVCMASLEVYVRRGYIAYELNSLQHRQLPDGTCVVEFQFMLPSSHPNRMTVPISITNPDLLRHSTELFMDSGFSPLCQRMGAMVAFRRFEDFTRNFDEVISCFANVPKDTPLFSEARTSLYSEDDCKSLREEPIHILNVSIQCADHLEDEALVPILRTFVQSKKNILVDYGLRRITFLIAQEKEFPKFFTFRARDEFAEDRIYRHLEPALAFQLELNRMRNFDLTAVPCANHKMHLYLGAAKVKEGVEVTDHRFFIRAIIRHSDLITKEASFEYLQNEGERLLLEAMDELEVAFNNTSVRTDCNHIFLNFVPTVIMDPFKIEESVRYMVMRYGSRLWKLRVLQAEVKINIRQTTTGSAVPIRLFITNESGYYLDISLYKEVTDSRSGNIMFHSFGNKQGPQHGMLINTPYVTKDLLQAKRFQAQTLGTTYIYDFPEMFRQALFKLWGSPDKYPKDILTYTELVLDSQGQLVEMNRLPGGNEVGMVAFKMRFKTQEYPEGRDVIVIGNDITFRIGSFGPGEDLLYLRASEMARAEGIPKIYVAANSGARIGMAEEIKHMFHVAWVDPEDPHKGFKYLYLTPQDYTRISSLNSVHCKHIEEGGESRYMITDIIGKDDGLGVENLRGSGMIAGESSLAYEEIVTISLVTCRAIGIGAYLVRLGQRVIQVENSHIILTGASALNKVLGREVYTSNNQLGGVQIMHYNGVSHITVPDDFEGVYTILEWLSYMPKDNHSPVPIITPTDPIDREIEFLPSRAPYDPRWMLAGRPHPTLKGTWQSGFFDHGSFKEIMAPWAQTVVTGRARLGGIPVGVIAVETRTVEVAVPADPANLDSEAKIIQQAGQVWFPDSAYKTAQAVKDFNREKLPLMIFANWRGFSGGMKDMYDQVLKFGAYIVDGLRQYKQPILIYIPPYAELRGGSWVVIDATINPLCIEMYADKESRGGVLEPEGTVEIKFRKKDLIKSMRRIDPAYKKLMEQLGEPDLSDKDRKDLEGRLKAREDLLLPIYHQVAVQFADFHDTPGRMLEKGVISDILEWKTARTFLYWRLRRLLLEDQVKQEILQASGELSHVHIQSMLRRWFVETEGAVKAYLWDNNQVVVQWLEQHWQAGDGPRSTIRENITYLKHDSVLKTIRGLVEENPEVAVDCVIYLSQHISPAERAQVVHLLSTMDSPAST
Sequence of acetyl-CoA carboxylase 2 (ACC2) (O00763 39-2458 limits assumed): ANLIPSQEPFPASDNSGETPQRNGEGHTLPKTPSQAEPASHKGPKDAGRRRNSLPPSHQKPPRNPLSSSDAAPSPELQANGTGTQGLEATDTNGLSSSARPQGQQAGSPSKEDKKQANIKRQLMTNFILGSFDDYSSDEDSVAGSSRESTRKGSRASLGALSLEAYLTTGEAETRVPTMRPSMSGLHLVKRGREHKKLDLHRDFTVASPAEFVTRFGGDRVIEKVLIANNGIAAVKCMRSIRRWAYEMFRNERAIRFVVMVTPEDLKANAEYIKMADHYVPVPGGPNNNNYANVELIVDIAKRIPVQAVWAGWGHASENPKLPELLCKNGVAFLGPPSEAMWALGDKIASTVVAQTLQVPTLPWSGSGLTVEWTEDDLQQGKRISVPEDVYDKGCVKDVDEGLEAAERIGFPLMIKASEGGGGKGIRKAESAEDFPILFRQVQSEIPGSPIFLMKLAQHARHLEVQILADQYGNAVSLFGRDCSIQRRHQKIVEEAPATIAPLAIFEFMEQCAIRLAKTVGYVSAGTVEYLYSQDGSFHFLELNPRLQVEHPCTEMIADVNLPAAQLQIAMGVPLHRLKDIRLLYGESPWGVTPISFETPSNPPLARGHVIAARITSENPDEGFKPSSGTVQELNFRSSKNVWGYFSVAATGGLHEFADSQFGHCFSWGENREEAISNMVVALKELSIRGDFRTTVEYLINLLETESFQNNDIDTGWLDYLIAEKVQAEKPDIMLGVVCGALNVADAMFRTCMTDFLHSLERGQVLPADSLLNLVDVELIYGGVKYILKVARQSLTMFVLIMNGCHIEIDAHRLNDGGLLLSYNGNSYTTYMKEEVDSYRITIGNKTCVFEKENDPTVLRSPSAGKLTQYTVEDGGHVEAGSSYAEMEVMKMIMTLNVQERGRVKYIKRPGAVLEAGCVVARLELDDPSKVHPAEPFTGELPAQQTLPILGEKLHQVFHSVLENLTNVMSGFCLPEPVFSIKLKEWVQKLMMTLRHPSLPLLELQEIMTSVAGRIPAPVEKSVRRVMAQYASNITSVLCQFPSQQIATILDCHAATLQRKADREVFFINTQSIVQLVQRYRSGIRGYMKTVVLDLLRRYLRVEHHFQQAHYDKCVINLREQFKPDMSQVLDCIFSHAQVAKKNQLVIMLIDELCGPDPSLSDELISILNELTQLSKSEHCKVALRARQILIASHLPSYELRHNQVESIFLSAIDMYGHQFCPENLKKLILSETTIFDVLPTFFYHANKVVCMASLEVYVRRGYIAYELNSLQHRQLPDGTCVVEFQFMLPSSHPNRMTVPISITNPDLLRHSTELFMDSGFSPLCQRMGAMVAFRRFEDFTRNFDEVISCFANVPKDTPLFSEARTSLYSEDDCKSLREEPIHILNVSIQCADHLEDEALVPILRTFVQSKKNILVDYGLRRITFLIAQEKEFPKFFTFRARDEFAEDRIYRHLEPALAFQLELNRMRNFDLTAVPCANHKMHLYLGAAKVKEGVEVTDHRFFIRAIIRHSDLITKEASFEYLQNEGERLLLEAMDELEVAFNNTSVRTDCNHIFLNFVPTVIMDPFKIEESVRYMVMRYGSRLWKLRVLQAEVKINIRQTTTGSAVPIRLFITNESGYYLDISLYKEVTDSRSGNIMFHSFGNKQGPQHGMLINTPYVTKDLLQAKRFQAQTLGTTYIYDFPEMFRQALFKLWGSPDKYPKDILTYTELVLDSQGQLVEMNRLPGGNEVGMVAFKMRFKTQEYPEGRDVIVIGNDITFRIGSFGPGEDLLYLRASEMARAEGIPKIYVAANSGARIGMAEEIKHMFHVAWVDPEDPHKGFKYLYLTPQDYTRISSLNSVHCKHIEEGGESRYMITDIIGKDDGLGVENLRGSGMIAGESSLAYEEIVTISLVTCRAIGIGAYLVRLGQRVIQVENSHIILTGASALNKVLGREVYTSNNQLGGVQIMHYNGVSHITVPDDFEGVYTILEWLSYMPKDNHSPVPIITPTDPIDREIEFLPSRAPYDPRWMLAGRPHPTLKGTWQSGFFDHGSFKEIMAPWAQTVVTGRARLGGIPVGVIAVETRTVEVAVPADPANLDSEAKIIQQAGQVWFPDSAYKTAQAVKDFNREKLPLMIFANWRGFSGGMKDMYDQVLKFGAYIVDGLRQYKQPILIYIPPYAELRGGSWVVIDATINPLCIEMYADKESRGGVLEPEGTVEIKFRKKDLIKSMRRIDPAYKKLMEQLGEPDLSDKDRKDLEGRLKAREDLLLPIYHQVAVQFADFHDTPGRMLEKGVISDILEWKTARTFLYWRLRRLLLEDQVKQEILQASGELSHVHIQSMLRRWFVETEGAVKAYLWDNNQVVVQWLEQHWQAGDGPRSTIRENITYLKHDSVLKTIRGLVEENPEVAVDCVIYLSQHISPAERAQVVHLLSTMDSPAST

Compound	IC50 [1, 4]	IC50 (MCF7)	IC50 [2]	IC50 (recombinant human ACC1)	IC50 [3]	IC50 [1]
Cc1ccc(-c2ccc(F)c(F)c2)cc1C1=C(O)C2(CCCCC2)NC1=O [1-115, 3-(3′,4′-Difluoro-4-methylbiphenyl-3-yl)-4-hydroxy-1-azaspiro[4.5]dec-3-en-2-one]	–	98 nM	10300 nM	314 nM	5040 nM	196 nM
COC[C@H]1CC[C@]2(CC1)NC(=O)C(c1cc(-c3ccc(Cl)cc3)ccc1C)=C2O [1-116, (5s,8s)-3-(4′-Chloro-4 methylbiphenyl-3-yl)-4-hydroxy-8-(methoxymethyl)-1-azaspiro[4.5]dec-3-en-2-one]	92 nM	31 nM	591 nM	232 nM	280 nM	–
Cc1ccc(-c2ccc(Cl)cc2)cc1C1=C(O)[C@]2(CC[C@H](CO)CC2)NC1=O [1-117, (5s,8s)-3-(4′-Chloro-4 methylbiphenyl-3-yl)-4-hydroxy-8-(hydroxymethyl)-1-azaspiro[4.5]dec-3-en-2-one]	–	64 nM	4110 nM	232 nM	812 nM	194 nM
CO[C@H]1CC[C@]2(CC1)NC(=O)C(c1cc(-c3ccc(Cl)cc3)c(C)cc1C)=C2O [1-132, (5s,8s)-3-(4′-Chloro-4,6-dimethylbiphenyl-3-yl)-4-hydroxy-8-methoxy-1-azaspiro[4.5]dec-3-en-2-one]	–	70 nM	234 nM	1710 nM	106 nM	912 nM
CO[C@H]1CC[C@]2(CC1)NC(=O)C(c1cc(-c3ccc(Cl)cc3)c(F)cc1C)=C2O [1-135, (5s,8s)-3-(4′-Chloro 6 fluoro 4-methylbiphenyl-3-yl)-4-hydroxy-8-methoxy-1-azaspiro[4.5]dec-3-en-2-one]	–	171 nM	1750 nM	220 nM	657 nM	94 nM
CO[C@H]1CC[C@]2(CC1)NC(=O)C(c1cc(-c3ccc(F)c(F)c3)ccc1C)=C2O [1-136, (5s,8s)-3-(3′,4′-Difluoro-4-methylbiphenyl-3-yl)-4-hydroxy-8-methoxy-1-azaspiro[4.5]dec-3-en-2-one]	–	156 nM	12500 nM	239 nM	6490 nM	233 nM
O=C1N[C@]2(CCC[C@H](C(F)(F)F)C2)C(O)=C1c1cc(-c2ccc(Cl)cc2)ccc1Cl [1-137, (5S,7S)-3-(4,4′-Dichlorobiphenyl-3-yl)-4-hydroxy-7-(trifluoromethyl)-1-azaspiro[4.5]dec-3-en-2-one]	–	439 nM	7490 nM	307 nM	7750 nM	168 nM
CC1(C)CCC2(CC1)NC(=O)C(c1cc(-c3ccc(Cl)cc3)ccc1Cl)=C2O [1-138, 3-(4,4′-Dichlorobiphenyl-3-yl)-4-hydroxy-8,8-dimethyl-1-azaspiro[4.5]dec-3-en-2-one]	–	54 nM	2190 nM	262 nM	633 nM	172 nM
CC1CCC2(CC1)NC(=O)C(c1cc(-c3ccc(Cl)cc3)ccc1Cl)=C2O (stereo not drawn) [1-139, 3-(4,4′-Dichlorobiphenyl-3-yl)-4-hydroxy-8-methyl-1-azaspiro[4.5]dec-3-en-2-one]	–	70 nM	4550 nM	280 nM	605 nM	153 nM
CC(C)[C@H]1CC[C@]2(CC1)NC(=O)C(c1cc(-c3ccc(Cl)cc3)ccc1Cl)=C2O [1-141, (5s,8s)-3-(4,4′-Dichlorobiphenyl-3-yl)-4-hydroxy-8-isopropyl-1-azaspiro[4.5]dec-3-en-2-one]	–	79 nM	1380 nM	247 nM	625 nM	161 nM
CO[C@H]1CC[C@]2(CC1)NC(=O)C(c1cc(-c3ccc(Cl)cc3F)ccc1C)=C2O [1-142, (5s,8s)-3-(4′-Chloro-2′-fluoro-4-methylbiphenyl-3-yl)-4-hydroxy-8-methoxy-1-azaspiro[4.5]dec-3-en-2-one]	–	106 nM	957 nM	337 nM	551 nM	704 nM

Now from value to compound, other results behind:

IC50 [1, 4]	IC50 (MCF7)	IC50 [2]	IC50 (recombinant human ACC1)	IC50 [3]	Compound	IC50 [1]
113 nM	43 nM	1640 nM	236 nM	2210 nM	COCC[C@H]1CC[C@]2(CC1)NC(=O)C(c1cc(-c3ccc(Cl)c(F)c3)ccc1C)=C2O [1-114, (5s,8s)-3-(4′-Chloro-3′-fluoro-4-methylbiphenyl-3-yl)-4-hydroxy-8-(2-methoxyethyl)-1-azaspiro[4.5]dec-3-en-2-one]	–
110 nM	37 nM	1080 nM	203 nM	479 nM	Cc1ccc(-c2ccc(Cl)cc2)cc1C1=C(O)[C@]2(CC[C@H](C(F)(F)F)CC2)NC1=O [1-119, (5s,8s)-3-(4′-Chloro-4 methylbiphenyl-3-yl)-4-hydroxy-8-(trifluoromethyl)-1-azaspiro[4.5]dec-3-en-2-one]	–
124 nM	288 nM	6590 nM	98 nM	5420 nM	Cc1ccc(-c2ccc(Cl)cc2)cc1C1=C(O)[C@]2(CC[C@](O)(C(F)(F)F)CC2)NC1=O [1-122, (5r,8r)-3-(4′-Chloro-4-methylbiphenyl-3-yl)-4,8-dihydroxy-8-(trifluoromethyl)-1-azaspiro[4.5]dec-3-en-2-one]	–
562 nM	309 nM	11200 nM	173 nM	3440 nM	Cc1ccc(-c2ccc(Cl)c(F)c2)cc1C1=C(O)[C@]2(CC[C@](O)(C(F)(F)F)CC2)NC1=O [1-123, (5r,8r)-3-(4′-Chloro-3′-fluoro-4-methylbiphenyl-3-yl)-4,8-dihydroxy-8-(trifluoromethyl)-1-azaspiro[4.5]dec-3-en-2-one]	–
467 nM	1700 nM	> 20000 nM	458 nM	> 20000 nM	Cc1ccc(-c2ccc(F)c(F)c2)cc1C1=C(O)[C@]2(CC[C@](O)(C(F)(F)F)CC2)NC1=O [1-124, (5r,8r)-3-(3′,4′-Difluoro-4-methylbiphenyl-3-yl)-4,8-dihydroxy-8-(trifluoromethyl)-1-azaspiro[4.5]dec-3-en-2-one]	–
217 nM	322 nM	6770 nM	281 nM	3990 nM	Cc1ccc(-c2ccc(Cl)cc2)c(C)c1C1=C(O)[C@]2(CC[C@](O)(C(F)(F)F)CC2)NC1=O [1-125, (5r,8r)-3-(4′-Chloro-2,4-dimethylbiphenyl-3-yl)-4,8-dihydroxy-8-(trifluoromethyl)-1-azaspiro[4.5]dec-3-en-2-one]	–
204 nM	594 nM	12400 nM	300 nM	6370 nM	Cc1ccc(-c2ccc(Cl)c(F)c2)c(C)c1C1=C(O)[C@]2(CC[C@](O)(C(F)(F)F)CC2)NC1=O [1-126, (5r,8r)-3-(4′-Chloro-3′-fluoro-2,4-dimethylbiphenyl-3-yl)-4,8-dihydroxy-8-(trifluoromethyl)-1-azaspiro[4.5]dec-3-en-2-one]	–
145 nM	1400 nM	13400 nM	216 nM	4840 nM	Cc1cc(F)c(-c2ccc(Cl)cc2)cc1C1=C(O)[C@]2(CC[C@](O)(C(F)(F)F)CC2)NC1=O [1-127, (5r,8r)-3-(4′-Chloro-6-fluoro-4-methylbiphenyl-3-yl)-4,8-dihydroxy-8-(trifluoromethyl)-1-azaspiro[4.5]dec-3-en-2-one]	–
267 nM	172 nM	10600 nM	349 nM	9610 nM	Cc1ccc(-c2ccc(F)c(F)c2)cc1C1=C(O)[C@]2(CC[C@@H](C(F)(F)F)CC2)NC1=O [1-129, (5r,8r)-3-(3′,4′-Difluoro-4-methylbiphenyl-3-yl)-4-hydroxy-8-(trifluoromethyl)-1-azaspiro[4.5]dec-3-en-2-one]	–
108 nM	61 nM	5890 nM	133 nM	4400 nM	Cc1ccc(-c2ccc(Cl)c(F)c2)cc1C1=C(O)[C@]2(CC[C@](O)(C(F)(F)C(F)(F)F)CC2)NC1=O [1-130, (5r,8r)-3-(4′-Chloro-3′-fluoro-4-methylbiphenyl-3-yl)-4,8-dihydroxy-8-(pentafluoroethyl)-1-azaspiro[4.5]dec-3-en-2-one]	–
98 nM	60 nM	5620 nM	266 nM	7620 nM	Cc1cc(F)c(-c2ccc(Cl)cc2)cc1C1=C(O)[C@]2(CC[C@](O)(C(F)(F)C(F)(F)F)CC2)NC1=O [1-131, (5r,8r)-3-(4′-Chloro-6-fluoro-4-methylbiphenyl-3-yl)-4,8-dihydroxy-8-(pentafluoroethyl)-1-azaspiro[4.5]dec-3-en-2-one]	–
142 nM	75 nM	8100 nM	329 nM	2870 nM	Cc1ccc(-c2ccc(Cl)cc2)cc1C1=C(O)[C@@]2(CCC[C@H](C(F)(F)F)C2)NC1=O [1-133, (5S,7S)-3 (4′-Chloro-4 methylbiphenyl-3-yl)-4-hydroxy-7-(trifluoromethyl)-1-azaspiro[4.5]dec-3-en-2-one]	–
109 nM	114 nM	2850 nM	299 nM	1310 nM	O=C1N[C@]2(CC[C@@H](C(F)(F)F)CC2)C(O)=C1c1cc(-c2ccc(Cl)cc2)ccc1Cl [1-134, (5s,8s)-3-(4,4′-Dichlorobiphenyl-3-yl)-4-hydroxy-8 (trifluoromethyl)-1-azaspiro[4.5]dec-3-en-2-one]	–

Source: US20130040935A1, “CYCLIC KETO-ENOLS FOR THERAPY” (BAYER INTELLECTUAL PROPERTY GMBH, priority 2010, published 2013)
